Data as given in US20130011411A1, “METHODS AND COMPOSITIONS FOR THE DIAGNOSIS, PROGNOSIS, AND TREATMENT OF CANCER” (priority 2010, published 2013).

System: breast cancer cell lines
Assay: DACH1 mRNA expression after methylation inhibitor treatment
Format: cell-based
Conditions: different breast cancer cell lines; data not shown
Text: DNA methylation is a common mechanism leading to tumor suppressor inactivation.

With `Nc1ncn([C@H]2C[C@H](O)[C@@H](CO)O2)c(=O)n1` [5-aza-2′-deoxycytidine] the “DACH1 mRNA expression” value was “induced DACH1 mRNA expression”.
